From patent US8673929B2, “4,6-di- and 2,4,6-trisubstituted quinazoline derivatives and pharmaceutical compositions useful for treating viral infections” (priority 2006, dated 2014)

Columns and labels:
HCV replicon = assay: Anti-HCV replicon assay, EC50 (luciferase readout); type: cell-based; conditions: Hepatitis C virus, 72 h; Huh-7 HCV replicon cells, 3 days incubation, luciferase luminescence
How it was run: (§1)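 Huh-7 cells harbouring an HCV replicon (6000/well) incubated 3 days at 37° C with 3-fold serially diluted compound (0.5% DMSO final where used). EC50 from luciferase luminescence of lysed cells; CC50 from CellTiter-Glo luminescence in parallel plates.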

[1] = CC50 assay in the anti-HCV replicon assay (CellTiter-Glo); type: cell-based, human; conditions: human, Huh-7 hepatoma cells harbouring an HCV replicon; Huh-7 HCV replicon cells, 3 days incubation, CellTiter-Glo luminescence
How it was run: as §1

## CNC(=O)c1cccc(-c2ccc3nc(N)nc(OC(C)C)c3c2)c1 [Example 186, 3-(2-Amino-4-isopropoxy-quinazolin-6-yl)-N-methyl-benzamide]
HCV replicon
  EC50: 0.3 to 1 µM
[1]
  CC50 at 3 days: 10 to 20 µM

## CCOc1nc(N)nc2ccc(-c3ccc(-c4nnc(C)o4)cc3)cc12 [Example 187, 4-Ethoxy-6-[4-(5-methyl-[1,3,4]oxadiazol-2-yl)-phenyl]-quinazolin-2-ylamine]
HCV replicon
  EC50: 1 to 10 µM
[1]
  CC50 at 3 days: > 20 µM

## CC(C)CNC(=O)c1ccc(-c2ccc3nc(N)nc(OCCO)c3c2)cc1 [Example 188, 4-[2-Amino-4-(2-hydroxy-ethoxy)-quinazolin-6-yl]-N-isobutyl-benzamide]
HCV replicon
  EC50: 1 to 10 µM
[1]
  CC50 at 3 days: > 20 µM

## Nc1nc(OCCO)c2cc(-c3ccc(C(=O)NC4CCCC4)cc3)ccc2n1 [Example 189, 4-[2-Amino-4-(2-hydroxy-ethoxy)-quinazolin-6-yl]-N-cyclopentyl-benzamide]
HCV replicon
  EC50: 1 to 10 µM
[1]
  CC50 at 3 days: > 20 µM

## CC(C)NC(=O)c1ccc(-c2ccc3nc(N)nc(OCCO)c3c2)cc1 [Example 190, 4-[2-Amino-4-(2-hydroxy-ethoxy)-quinazolin-6-yl]-N-isopropyl-benzamide]
HCV replicon
  EC50: 1 to 10 µM
[1]
  CC50 at 3 days: > 20 µM

## CONC(=O)c1ccc(-c2ccc3nc(N)nc(OCCO)c3c2)cc1 [Example 191, 4-[2-Amino-4-(2-hydroxy-ethoxy)-quinazolin-6-yl]-N-methoxy-benzamide]
HCV replicon
  EC50: 1 to 10 µM
[1]
  CC50 at 3 days: > 20 µM

## Nc1nc(OCCO)c2cc(-c3ccc(C(=O)N4CCSC4)cc3)ccc2n1 [Example 192, {4-[2-Amino-4-(2-hydroxy-ethoxy)-quinazolin-6-yl]-phenyl}-thiazolidin-3-yl-methanone]
HCV replicon
  EC50: 1 to 10 µM
[1]
  CC50 at 3 days: > 20 µM

## Nc1nc(OCCO)c2cc(-c3ccc(O)cc3)ccc2n1 [Example 193, 4-[2-Amino-4-(2-hydroxy-ethoxy)-quinazolin-6-yl]-phenol]
HCV replicon
  EC50: 1 to 10 µM
[1]
  CC50 at 3 days: > 20 µM

## Nc1nc(OCCO)c2cc(-c3cccc(O)c3)ccc2n1 [Example 194, 3-[2-Amino-4-(2-hydroxy-ethoxy)-quinazolin-6-yl]-phenol]
HCV replicon
  EC50: 1 to 10 µM
[1]
  CC50 at 3 days: 10 to 20 µM

## Nc1nc(OCCO)c2cc(-c3ccc(C(=O)NC4CC4)cc3)ccc2n1 [Example 195, 4-[2-Amino-4-(2-hydroxy-ethoxy)-quinazolin-6-yl]-N-cyclopropyl-benzamide]
HCV replicon
  EC50: 1 to 10 µM
[1]
  CC50 at 3 days: > 20 µM

## Nc1nc(OCCF)c2cc(-c3ccc(C(=O)N4CCCCC4)cc3)ccc2n1 [Example 196, {4-[2-Amino-4-(2-fluoro-ethoxy)-quinazolin-6-yl]-phenyl}-piperidin-1-yl-methanone]
HCV replicon
  EC50: 1 to 10 µM
[1]
  CC50 at 3 days: > 20 µM

## Nc1nc(OCCF)c2cc(-c3ccc(C(=O)NCc4ccccc4)cc3)ccc2n1 [Example 197, 4-[2-Amino-4-(2-fluoro-ethoxy)-quinazolin-6-yl]-N-benzyl-benzamide]
HCV replicon
  EC50: 1 to 10 µM
[1]
  CC50 at 3 days: 10 to 20 µM

## CC(C)CNC(=O)c1ccc(-c2ccc3nc(N)nc(OCCF)c3c2)cc1 [Example 198, 4-[2-Amino-4-(2-fluoro-ethoxy)-quinazolin-6-yl]-N-isobutyl-benzamide]
HCV replicon
  EC50: 1 to 10 µM
[1]
  CC50 at 3 days: 10 to 20 µM

## CCCCNC(=O)c1ccc(-c2ccc3nc(N)nc(OCCF)c3c2)cc1 [Example 199, 4-[2-Amino-4-(2-fluoro-ethoxy)-quinazolin-6-yl]-N-butyl-benzamide]
HCV replicon
  EC50: 1 to 10 µM
[1]
  CC50 at 3 days: > 20 µM

## CC(C)(C)NC(=O)c1ccc(-c2ccc3nc(N)nc(OCCF)c3c2)cc1 [Example 200, 4-[2-Amino-4-(2-fluoro-ethoxy)-quinazolin-6-yl]-N-tert-butyl-benzamide]
HCV replicon
  EC50: 1 to 10 µM
[1]
  CC50 at 3 days: > 20 µM

## Nc1nc(OCCF)c2cc(-c3ccc(C(=O)NC4CCCC4)cc3)ccc2n1 [Example 201, 4-[2-Amino-4-(2-fluoro-ethoxy)-quinazolin-6-yl]-N-cyclopentyl-benzamide]
HCV replicon
  EC50: 1 to 10 µM
[1]
  CC50 at 3 days: 10 to 20 µM
